Experimental data reported in patent US10836792B2, “Retro-inverso peptide inhibitors of cell migration, extracellular matrix and endothelial invasion by tumor cells” (ISTITUTO NAZIONALE TUMORI IRCCS “FONDAZIONE G. PASCALE”, priority 2016, dated 2020).
Non-standard residues stand in square brackets, D forms with d. Residues, ends and D or L forms follow the SMILES beside them. Aib = CC(C)(N)C(=O)O

Tests used:
human Sarc cells = assay: Human Sarc cell tumors in the flank of CD1 nude mice; format: in vivo; conditions: 6 mg/Kg i.p. every day for 10 days
Experimental: FIG. 11 The intraperitoneal (i.p.) administration of 6 mg/Kg of the retro-inverso peptide RI-3 every day for 10 days reduces in vivo tumor growth and vascular infiltration by human chondrosarcoma Sarc cells in nude mice. (A) Time-dependent average of treated and control mice. (B) Tumor volumes measured at different time points. (C) Tumors excised after 10 days. (D) CD31 immuno-staining of formalin fixed paraffin sections of the excised tumors. (E) Counts of vascular channels harboring red blood cells on CD31 immuno-stained sections. (F) Quantification of Circulating Tumor Cells (CTCs). (Example 11)
Ten six-eight week old, CD1 female nude mice received the injection of human Sarc cells as a single-cell suspension (1×10^6 cells in 100 μl PBS, 96% viability) into the right flank. Five animals received i.p-administration of 6 mg/Kg RI-3 every day for 10 days, and five received injections of vehicle only (CTRL). A. Time-dependent average weight was monitored every two days. B. Tumor volumes measured at different time points with a caliper, using the formula: ½×(width)^2×length (mm). After 10 days, blood samples (˜500 μL/mouse) from the retroorbital venous plexus of mice were collected and processed for determination of Circulating Tumor Cells (CTC)s. Then, animals were sacrificed and the excised tumors (C) were fixed in buffered formalin and processed for paraffin sectioning. Tumor vascularization was assessed by counting vascular channels harbouring red blood cells on CD31 immuno-stained sections (D) in 5 randomly chosen fields per section, in at least two sections per tumor at ×200 (E). To quantify CTCs, DNA from nucleated cells of murine blood samples was purified and quantitated by Real-Time PCR using primers targeting human Alu-sequences. Number of CTCs was calculated by comparing the obtained amplification curves with others generated in spiking experiments, which were included in every run (F).
Tumor volumes of vehicle- and RI-3-treated mice were 445+/−285 and 112+/−41 mm^3, respectively, with p<0.05 (B). After 10 days, animals were sacrificed and tumors excised (C). According with the ability of RI-3 to prevent in vitro formation of a capillary network, the intratumoral microvessel density was reduced in tumors from animals treated with RI-3 as compared to those treated with vehicle alone (D-E).

[1] = system: human chondrosarcoma Sarc; assay: Trans-endothelial migration through HUVEC monolayer (xCELLigence RTCA), Sarc; format: cell-based; conditions: 10 nM, 5 hrs
Experimental: (§1) FIG. 9 At the concentration of 10 nM the retro-inverso peptide RI-3 affects trans-endothelial migration of human chondrosarcoma Sarc (A), melanoma A375 (B), ovarian carcinoma SKOV-3 (C) cells, or THP1 monocytes (D), as monitored by the xCELLigence RTCA system (Example 9).
(§2) The entry of tumor cells into bloodstream is one of the earliest events of the metastatic process. The ability of RI-3 to affect trans-endothelial migration of human chondrosarcoma Sarc (A) melanoma A375 (B), ovarian carcinoma SKOV-3 (C) cells, or THP1 monocytes (D) was monitored by the xCELLigence RTCA system. Human Umbilical Vein Endothelial Cells (HUVEC) (1×10^4 cells/well) suspended in growth medium, were allowed to grow for 20-25 hrs until they form a confluent monolayer, prior to seeding Sarc, A375, SKOV-3, or THP-1 cells (1×10^4 cells/well) in growth medium in the absence (None) or in the presence of 10 nM RI-3. The experiments were performed twice in quadruplicate. When cells cross the endothelial monolayer, there is a drop in electrical resistance which is monitored in real-time for 5 hrs as the cell index changes due to the rupture of endothelial monolayer. All cell lines were able to reduce endothelial monolayer integrity. The addition of 10 nM RI-3 inhibited the capability of Sarc, A375, SKOV-3, and THP-1 cells to disrupt endothelial monolayers by 17%, 22%, 58%, and 36% respectively.

[2] = Stability in human serum, read out by HT1080 matrigel invasion in Boyden chambers; format: in vitro ADME; conditions: 10^−3 mol/L in serum 18 hrs at 37° C., then 10 nM, invasion 6 hrs
Experimental: FIG. 7 The retro-inverso peptide RI-3 is stable when pre-incubated in bovine (A) or human serum (B) as assessed in real time using the xCELLigence technology (A) or in Boyden chambers (B) (Example 7).
The stability of the retro-inverso peptide RI-3 in bovine and human serum was investigated through incubation of the peptide at a 10^−3 mol/L in serum for 18 hrs at 37° C. HT1080 cells were allowed to migrate toward DMEM (CTRL), 10% FBS (None), 10% FBS plus 10 nM RI-3 or 10% FBS with 10 nM RI-3 pre-incubated with bovine serum and the impedance values were automatically monitored in real time by the xCELLigence system for 18 hrs and expressed as cell index. Data represent the means from a quadruplicate experiment representative of 2 replicates. […] The stability of RI-3 in human serum was further investigated in cell invasion experiments performed in Boyden chambers. HT1080 cells were allowed to invade matrigel for 6 hrs, toward DMEM (CTRL), 10% FBS (None), 10% FBS plus 10 nM RI-3 or 10% FBS with 10 nM RI-3 pre-incubated with human serum. For quantitative analysis of cell invasion, the basal value assessed in the absence of FBS (CTRL) was taken as 100% and all values were reported relative to that. Data are the means±SD from a triplicate experiment. *Statistical significance was calculated against None with p<0.005. […]

FPR1 = biological target: T1, FPR1 (Homo sapiens, UniProt P21462); assay: Agonist-dependent FPR1 internalization in RBL-2H3/ETFR cells (microscopy); format: cell-based; conditions: binding experiments at 37° C., FITC-fMLF
T1 construct: expressed in transfected cells; host or cells: rat basophilic leukaemia RBL-2H3/ETFR cells
T1 sequence (P21462 1-350): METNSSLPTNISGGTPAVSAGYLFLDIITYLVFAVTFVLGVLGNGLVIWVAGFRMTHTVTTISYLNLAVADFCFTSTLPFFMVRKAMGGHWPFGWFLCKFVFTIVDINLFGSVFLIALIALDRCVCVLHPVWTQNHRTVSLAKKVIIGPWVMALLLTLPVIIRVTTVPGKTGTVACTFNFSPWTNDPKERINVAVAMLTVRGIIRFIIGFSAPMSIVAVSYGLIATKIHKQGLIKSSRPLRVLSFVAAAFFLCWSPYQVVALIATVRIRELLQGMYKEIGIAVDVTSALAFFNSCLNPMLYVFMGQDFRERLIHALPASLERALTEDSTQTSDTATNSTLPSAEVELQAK
Experimental: Cell-associated fluorescence was measured using a fluorescence plate reader. The results are depicted in FIG. 3. […] To evaluate the effect of RI-3 on agonist-dependent FPR1 internalization, binding experiments were performed at 37° C. and cells were visualized using a Zeiss 510 Meta LSM microscope. Original magnifications: 630×. Scale bar: 10 μm.

THP1 monocytes = assay: Trans-endothelial migration through HUVEC monolayer (xCELLigence RTCA), THP-1; format: cell-based, human; conditions: 10 nM, 5 hrs
Experimental: as §1, §2

ovarian carcinoma SKOV-3 = assay: Trans-endothelial migration through HUVEC monolayer (xCELLigence RTCA), SKOV-3; format: cell-based, human; conditions: 10 nM, 5 hrs
Experimental: as §1, §2

CC(=O)N[C@H](Cc1ccc(O)cc1)C(=O)N[C@H](CCCNC(=N)N)C(=O)NC(C)(C)C(=O)N[C@H](CCCNC(=N)N)C(N)=O [RI-3, Ac-(D)-Tyr-(D)-Arg-Aib-(D)-Arg-NH2] (Ac-[dY][dR][Aib][dR]-NH2)
body weight (human Sarc cells): without clear changes in body weight | mice with CTCs in blood samples (human Sarc cells): 3/5 | reduction of the number of circulating sarcoma cells in murine blood samples (human Sarc cells): 74.5% | signs of toxicity (human Sarc cells): no signs of toxicity | tumor volume (human Sarc cells): 112+/−41 mm^3 | Circulating Tumor Cells in blood (human Sarc cells; blood after 10 days): 2.4+/−2 CTCs/mL | intratumoral microvessel density (CD31) (human Sarc cells; vs vehicle): reduced | inhibition of the capability to disrupt endothelial monolayers [1]: 17% | inhibitory activity retained after pre-incubation with human serum [2]: 81% | agonist-dependent FPR1 internalization (FPR1): prevented agonist-dependent FPR1 internalization | inhibition of the capability to disrupt endothelial monolayers (THP1 monocytes): 36% | inhibition of the capability to disrupt endothelial monolayers (ovarian carcinoma SKOV-3): 58%
